Assay results published in article PMC6271978, “1H-2,3-Dihydroperimidine Derivatives: A New Class of Potent Protein Tyrosine Phosphatase 1B Inhibitors” (Molecules, 2013).
“Also recorded” adds a separate entry of the source.

Key:
[1] = target: T1, PTP1B (GST-PTP1B) (Homo sapiens, UniProt P18031); assay: PTP1B inhibition, colorimetric pNPP assay; type: biochemical; conditions: pNPP substrate
T1 sequence (P18031 1-435): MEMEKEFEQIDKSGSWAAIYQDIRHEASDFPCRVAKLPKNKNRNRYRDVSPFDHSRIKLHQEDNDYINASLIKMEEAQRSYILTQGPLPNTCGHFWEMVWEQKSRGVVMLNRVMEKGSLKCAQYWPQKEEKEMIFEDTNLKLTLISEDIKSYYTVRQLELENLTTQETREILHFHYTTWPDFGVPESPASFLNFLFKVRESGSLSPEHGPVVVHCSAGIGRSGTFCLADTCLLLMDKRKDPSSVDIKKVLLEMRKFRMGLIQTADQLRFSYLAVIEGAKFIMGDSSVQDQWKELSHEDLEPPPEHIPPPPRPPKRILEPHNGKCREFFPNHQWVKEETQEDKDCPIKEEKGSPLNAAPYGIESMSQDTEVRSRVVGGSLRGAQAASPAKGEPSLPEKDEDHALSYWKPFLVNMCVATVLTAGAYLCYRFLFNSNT

[2] = target: T2, TCPTP (GST-TCPTP) (Homo sapiens, UniProt P17706); assay: TCPTP inhibition, colorimetric pNPP assay; type: biochemical
T2 sequence (P17706 1-415): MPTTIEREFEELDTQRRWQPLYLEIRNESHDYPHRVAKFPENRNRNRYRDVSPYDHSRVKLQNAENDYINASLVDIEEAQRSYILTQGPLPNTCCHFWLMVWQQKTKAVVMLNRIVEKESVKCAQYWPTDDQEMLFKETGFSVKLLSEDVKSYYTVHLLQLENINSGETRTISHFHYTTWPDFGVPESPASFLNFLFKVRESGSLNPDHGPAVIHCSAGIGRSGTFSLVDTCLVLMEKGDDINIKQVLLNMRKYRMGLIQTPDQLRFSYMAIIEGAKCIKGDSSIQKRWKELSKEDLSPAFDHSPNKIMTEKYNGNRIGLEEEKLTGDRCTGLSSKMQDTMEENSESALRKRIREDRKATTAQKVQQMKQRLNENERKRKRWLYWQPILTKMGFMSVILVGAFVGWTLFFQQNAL
Method: In addition to potency improvements, we investigated the selectivity of three representative compounds, namely, 1, 46 and 49 against other PTPs (TCPTP, SHP-1, SHP-2, LAR). […] Besides TCPTP, we tested the inhibitory activity of these compounds on other three homogenous enzymes SHP-1, SHP-2, and LAR [25].
A colorimetric assay to measure inhibition against PTP1B and TCPTP was performed in 96-well plates. Briefly, the tested compounds were solubilized in DMSO and serially diluted into concentrations for the inhibitory test. The assays were carried out in a final volume of 100 μL containing 50 mmol/L MOPS, pH 6.5, 2 mmol/L pNPP, 30 nmol/L GST-PTP1B or GST-TCPTP,and 2% DMSO, and the catalysis of pNPP was continuously monitored on a SpectraMax 340 microplate reader at 405 nm for 3 min at 30 °C. The IC50 value was calculated from the nonlinear curve fitting of the percent inhibition [inhibition (%)] vs. the inhibitor concentration using the Equation (1): Inhibition (%) = 100/[1 + (IC50/[I]k)] (1) where k is the Hill coefficient. To study the inhibition on the other PTPase family members, SHP1, SHP2 and LAR were prepared and assays were performed according to procedures described previously. Briefly, the enzymatic activity of the SHP1, SHP2 and LARwere determined at 30 °C by monitoring the dephosphorylation of substrate 3-o-methylfluorescein phosphate (OMFP), product was then detected at a 485 nm excitation wavelength and 530 nm emission wavelength by the EnVision multilabe plate reader (Perkin-Elmer Life Sciences, Boston, MA, USA). The assays were carried out in a final volume of 50 μL containing 50 mmol/L MOPS, pH 6.8, 10 μmol/L OMFP, 20 nmol/L recombinant enzyme, 2 mmol/L dithiothreitol , 1 mmol/L EDTA, and 2% DMSO. The initial rate of the dephosphorylation was presented by the early linear region of the enzymatic reaction kinetic curve, the inhibitory activity of the compound was continuously monitored.

[3] = target: T3, PTP1B (Homo sapiens, UniProt P18031); assay: Enzyme kinetics: fast-binding and inhibition modality on PTP1B; type: biochemical
T3 sequence (P18031 1-435): T1 sequence (P18031 1-435)
Method: A kinetic study was performed in order to identify the inhibitory mechanism of compound 46 (Figure 2), using the reported enzyme kinetics assays.
To characterize the inhibitor of PTP1B, the assay was carried out in a 100 μL system containing 50 mmol/L MOPS, pH 6.5, 14 nmol/L PTP1B, pNPP in 2-fold dilution from 80 mmol/L, and different concentrations of the inhibitor. […] (2) where Km is the Michaelis constant, v is the initial rate, Vmax is the maximum rate, and [S] is the substrate concentration. The Ki value was obtained by the linear replot of apparent Km/Vmax (slope) from the primary reciprocal plot versus the inhibitor concentration [I] according to the equation Km/Vmax = 1 + [I]/Ki.

[4] = system: tyrosine phosphorylation of insulin receptor β in CHO/hIR cells; assay: Tyrosine phosphorylation of insulin receptor in CHO/hIR cells (Western blot); type: cell-based, hamster CHO cells expressing human insulin receptor; conditions: compound 5 µM to 20 µM for 3 h, insulin 10 nM 10 min, versus DMSO
Method: To explore the effect of PTP1B inhibitor in vitro on insulin signaling, CHO cells overexpressing human insulin receptor (CHO/hIR) were treated in presence or absence of compound, then tyrosine phosphorylation level of insulin receptor (p-IR) was detected after stimulated by insulin.
CHO/hIR cells were cultured in F12 nutrient medium including 10% (V/V) FBS, 100 units/mL penicillin and 100 μg/mL streptomycin with 5% CO2 at 37 °C. Cells were serum free starved for 2 h, and then treated with compounds for 3 h, followed with insulin (10 nM, Eli Lilly) for 10 min before harvested. Cells were rinsed twice with precooled 1× PBS and then lysed with 1× SDS loading buffer. Samples were heated at 100 °C for 15 min before electrophoresed with 8% SDS-polyarylamide gel under 80 to 120 volt voltage, and then transferred to nitrocellulose (NC) membranes. NC membranes were blocked for 2 h with 5% BSA (W/V) dissolved in TBST. The membranes incubated with primary antibodies overnight at 4 °C and secondary antibodies for 1 h at room temperature. The primary antibody p-Tyr (PY20) used was from Santa Cruz (Dallas, CA, USA) and β-actin from Sigma (St. Louis, MO, USA), secondary antibody was from Jackson Immuno Research (Philadelphia, PA, USA).

[5] = means ± SD of three replications, OA/PC = oleanolic acid positive control

SMILES: O=C(O)CNC(=O)c1ccc(C2Nc3cccc4cccc(c34)N2)nc1 [Compound 46]
- inhibition at 20 µg/mL ([1]; PTP1B, compound at 20 μg/mL): 99.5%
- IC50 [1, 5]: 0.66 ± 0.03 µM
- IC50 PTP1B [1, 5]: submicromolar
- IC50 ([2]; pNPP substrate, means ± SD of three replications, PC = oleanolic acid): 2.3 ± 0.17 µM
- TCPTP/PTP1B (selectivity, fold) ([2]; ratio of IC50 TCPTP to IC50 PTP1B): 3.48
- inhibition modality toward PTP1B ([3]; Lineweaver-Burk plot, increased Km, unchanged Vmax, pNPP substrate): competitive inhibitor; also recorded: Typical competitive inhibition
- binding behaviour of inhibition of PTP1B (time dependence) ([3]; preincubation of PTP1B with compound on ice for different times): fast-binding inhibition
- tyrosine phosphorylation level of insulin receptor (p-IR) [4]: greatly improved p-IR level
